Data set [1] deals with tested bacteria and fungi. Type of data set: cell-based. As to conditions: for bacteria; serine-phosphorylated peptides. On the procedure:
(§1) The antimicrobial activities of HBc ARD peptides were tested on numerous bacterial strains from ATCC, including Pseudomonas aeruginosa Migula strain (ATCC 27853, ampicillin-resistant), Pseudomonas aeruginosa Migula strain (ATCC 9027, ampicillin-resistant), Klebsiella pneumoniae strain (ATCC 17593), Escherichia coli strain (ATCC 25922), Staphylococcus aureus subsp. strain (ATCC 25923, methicillin-resistant), Staphylococcus aureus subsp. strain (ATCC29213, methicillin-resistant), Staphylococcus aureus subsp. strain (ATCC 19636, methicillinresistant), and Candida albicans strain (ATCC 10231).
(§2) All peptides were purchased from Yao-Hong Biotechnology Inc. (Taipei, Taiwan). Vendors provided data of peptide characterizations, including HPLC and Mass. Antimicrobial activity was determined as described with some modifications as detailed below. Bacteria were grown overnight in Mueller-Hinton broth (Difeo) at 37° C., and during the mid-logarithmic phase, bacteria were diluted to 10^6 CFU (colony formation unit)/ml in phosphate buffer (10 mM sodium phosphate and 50 mM sodium chloride, pH 7.2). Peptides were serially diluted in the same buffer. Fifty microliter (μl) of bacteria was mixed with fifty μl of peptides at varying concentrations followed by incubation at 37° C. for 3 hours without shaking. […]

A further data set relates to P. aeruginosa. Type of data set: cell-based, Pseudomonas aeruginosa. Here is the method:
as §1
(§3) Clinical isolates of Pseudomonas aeruginosa (NHRI-01, NHRI-02 AND NHRI-04) were obtained through the program of Taiwan Surveillance of Antimicrobial Resistance, National Health Research Institutes, Taiwan, Acinetobacter baumannii (ATCC 17989, ATCC 17978 CR, ATCC19606, ATCC 19606 CR, TCGH 45530 AND TCGH 46709) were obtained from Tzu-Chi Buddhist General Hospital in Taiwan, and clinical isolates (TCGH 1 45530 AND TCGH 46709) were identified using the Vitek system (Biomerieux Vitek, Inc., MO, USA). A. baumannii is defined as multidrug-resistant when the organism is resistant to piperacillin, piperacillin-tazobactam, ampicillin/sulbactam, imipenem, ceftazidime, gentamicin, amikacin, tetracycline, chloramphenicol, ciprofloxacin, and cotrimoxazole. Susceptibility to colistin was determined using the broth-dilution method, in accordance with the guidelines of the Clinical and Laboratory Standards Institute.
All peptides were purchased from Yao-Hong Biotechnology Inc. (Taipei, Taiwan). Vendors provided data of peptide characterizations, including HPLC and Mass. Antimicrobial activity was determined as described with some modifications as detailed below. Bacteria were grown overnight in Mueller-Hinton broth (Difeo) at 37° C., and during the mid-logarithmic phase, bacteria were diluted to 10^6 CFU (colony formation unit)/ml in phosphate buffer (10 mM sodium phosphate and 50 mM sodium chloride, pH 7.2). Peptides were serially diluted in the same buffer. […]

A further data set concerns K. pneumoniae. Type of data set: cell-based, Klebsiella pneumoniae. As to conditions: for Minimal bactericidal concentration: K. pneumoniae ATCC 13884. On the procedure: as §1
(§4) All peptides were purchased from Yao-Hong Biotechnology Inc. (Taipei, Taiwan). Vendors provided data of peptide characterizations, including HPLC and Mass. Antimicrobial activity was determined as described with some modifications as detailed below. Bacteria were grown overnight in Mueller-Hinton broth (Difeo) at 37° C., and during the mid-logarithmic phase, bacteria were diluted to 10^6 CFU (colony formation unit)/ml in phosphate buffer (10 mM sodium phosphate and 50 mM sodium chloride, pH 7.2). Peptides were serially diluted in the same buffer. Fifty microliter (μl) of bacteria was mixed with fifty μl of peptides at varying concentrations followed by incubation at 37° C. for 3 hours without shaking. At the end of incubation, bacteria were placed on Mueller-Hinton broth agar plates, and allowed growth at 37° C. overnight for measurement of minimal bactericidal concentration (MBC). […] All peptides were tested in triplicate.

For another data set, the system named is E. coli. It is filed as cell-based, Escherichia coli. As to conditions: for Minimal bactericidal concentration: E. coli ATCC 25922. On the procedure:
as §1, §4

Another data set relates to S. aureus. It is filed as cell-based, Staphylococcus aureus. As to conditions: for Minimal bactericidal concentration: S. aureus ATCC 19636. On the procedure:
as §1, §4

Another data set relates to C. albicans. Type of data set: cell-based, Candida albicans. Here is the method:
as §1, §2

A further data set deals with A. baumannii. It is filed as cell-based, Acinetobacter baumannii.
Description: as §3
All peptides were purchased from Yao-Hong Biotechnology Inc. (Taipei, Taiwan). Vendors provided data of peptide characterizations, including HPLC and Mass. Antimicrobial activity was determined as described with some modifications as detailed below. […]

Another data set relates to human red blood cells. In words: Hemolytic activity. It is filed as cell-based. As to conditions: 10% hRBCs, one hour of incubation. Here is the method:
(§5) (A) Hemolytic activities of HBc147-183 and melittin were measured with 10% human red blood cells (RBC). […] (B) Huh7, HepG2, Vero and HEK293 cells were incubated with varying concentrations (0 to 100 μM) of HBc147-183 and melittin for 1 hour at 37° C. The effects on cell viability were determined by MTT assay. Melittin was used as a positive control. […] (C) Kidney cells, Vero and HEK293 were stained with CFSE and seeded at day 0. At day 1, cells were incubated with varying concentrations (0 to 100 μM) of HBc147-183 for 1 hour. Cell proliferation at day 1 and day 3 were determined by flow cytometry. […] Samples assayed in FIGS. 7A-C were measured in triplicates. (D) (D) In vivo toxicity of ARD peptide HBc147-183 was determined using three-week old male ICR mice. The mice were injected intraperitoneally with peptide (10 and 20 mg/kg of body weight).
The hemolytic activities of peptides were determined by hemolysis against human red blood cells (hRBCs). Human blood was obtained in EDTA-containing tube and was centrifuged at 450 g for 10 min. […] After centrifugation at 450 g for 10 min, the percentage of hemolysis was determined by measuring the absorbance at the wavelength of 405 nm of the supernatant. Blank and 100% hemolysis were determined in PBS buffer and in the presence of 1% Triton X-100, respectively.

For data set [2], the system named is Huh7, HepG2, Vero and HEK293 cells. In words: Cytotoxicity, MTT assay. Type of data set: cell-based, human, monkey. As to conditions: for effect on cell viability: 0 to 100 μM, 1 hour at 37° C. Here is the method: as §5
Cytotoxicity was measured in HepG2, Huh7, HEK293, and Vero cells by MTT assay. Cells were seeded at 10^4 cells/well in a 96-well plate and serial dilutions of peptides were added into each well. PBS was used as a negative control and melittin was used as a positive control. After 1 hour of incubation, the medium were replaced by a fresh medium containing 10% MTT solution (PROMEGA™), and the plate was incubated for 4 hours in 5% CO2 at 37° C., The absorbance at the wavelength a 595 nm was measured by an ELISA reader (BIO-RAD™ model 680).
On the technique in general: Formazan colour is commonly taken as a measure of viable cells.

For a further data set, the system named is Vero and HEK293 cells. Briefly: CFSE cell proliferation assay. Type of data set: cell-based, human, monkey. As to conditions: 5, 25 and 100 μM for 1 hour, day 3 vs day 1. On the procedure: as §5
To set up CFSE cell proliferation assay, 293 cells (human kidney origin) and Vero cells (monkey kidney origin) were resuspended in PBS to a final concentration of 10^6 cells/ml before incubation with 10 μM CFSE dye (CELLTRACE™ CFSE cell proliferation kit, INVITROGEN™) at 37° C. for 10 min. To quench the staining, ice-old culture media were then added and incubated on ice for 5 min. […] Forty-eight hours later, cells were harvested and analyzed by flow cytometry (FACSCanto, BD Bioscience).

The subject of another data set is ICR mice. In words: In vivo acute toxicity. Here is the method:
as §5
Three-week old male ICR mice (19 to 21 g) were purchased from BioLASCO (Taiwan) Overnight culture of bacteria in BHI broth (Difco) was subcultured in fresh BRI broth to log phase. Inoculums were diluted in BHI broth to indicated densities. To test the acute toxicity of ARD peptide in vivo, ICR male mice were inoculated intraperitoncally (i.p.) with 10 and 20 mg/kg HBc147-183 in PBS, respectively. […] After peptide injection, the number of dead mice was recorded daily for 7 days post-injection. […] Mortality was monitored daily for 7 days post-inoculation. […]

Results on four compounds are retold here after patent publication US10214564B2, “Antimicrobial peptides derived from hepatitis B virus core protein arginine-rich domain” (priority 2013, dated 2019).

Where two headings read alike, the source gives them in different places. Where no end group is shown, it is not given here.

As to `CC(C)[C@H](NC(=O)[C@@H](NC(=O)[C@@H](N)[C@@H](C)O)C(C)C)C(=O)N[C@@H](CCCNC(=N)N)C(=O)N[C@@H](CCCNC(=N)N)C(=O)N[C@@H](CCCNC(=N)N)C(=O)NCC(=O)N[C@@H](CCCNC(=N)N)C(=O)N[C@@H](COP(=O)(O)O)C(=O)N1CCC[C@H]1C(=O)N[C@@H](CCCNC(=N)N)C(=O)N[C@@H](CCCNC(=N)N)C(=O)N[C@@H](CCCNC(=N)N)C(=O)N[C@H](C(=O)N1CCC[C@H]1C(=O)N[C@@H](COP(=O)(O)O)C(=O)N1CCC[C@H]1C(=O)N[C@@H](CCCNC(=N)N)C(=O)N[C@@H](CCCNC(=N)N)C(=O)N[C@@H](CCCNC(=N)N)C(=O)N[C@@H](CCCNC(=N)N)C(=O)N[C@@H](CO)C(=O)N[C@@H](CCC(N)=O)C(=O)N[C@@H](COP(=O)(O)O)C(=O)N1CCC[C@H]1C(=O)N[C@@H](CCCNC(=N)N)C(=O)N[C@@H](CCCNC(=N)N)C(=O)N[C@@H](CCCNC(=N)N)C(=O)N[C@@H](CCCNC(=N)N)C(=O)N[C@@H](CO)C(=O)N[C@@H](CCC(N)=O)C(=O)N[C@@H](CO)C(=O)N[C@@H](CCCNC(=N)N)C(=O)N[C@@H](CCC(=O)O)C(=O)N[C@@H](CO)C(=O)N[C@@H](CCC(N)=O)C(=O)N[C@@H](CS)C(=O)O)[C@@H](C)O` [HBc155p162p170p], the MBC in data set [1] was more than 32 µM.

For the compound “TVIRRRGGARASRSPRRRTPSPRRRRSQSPRRRRSQSPSANC [wHBc ARD]”, the Minimal bactericidal concentration in the data set on P. aeruginosa (P. aeruginosa ATCC 9027) was 2 µM; in the data set with P. aeruginosa (P. aeruginosa ATCC 27853), 2 µM; with K. pneumoniae it was 2 µM; in the data set on E. coli, 4 µM; in the data set with S. aureus, 8 µM.

As for “TVVRRRGRSPRRRTPSPRRRRSQSPRRRRSQSRESQC [HBc147-183]”, the MBC in the data set with P. aeruginosa (colistin-resistant P. aeruginosa) is more than 16 µM; in the data set on K. pneumoniae (K. pneumonia, strain not given), “lower than 4 μM”; in the data set on E. coli (E. coli, strain not given), “around 4 μM”; in the data set with S. aureus (S. aureus, strain not given) it was “around 4 μM”; in the data set on C. albicans, approximately 8 µM; in the data set with A. baumannii, 0.5 to 1 µM. Further, the MBC in the data set with A. baumannii (colistin-resistant A. baumannii) lay within 0.5 to 1 µM. The Minimal bactericidal concentration in the data set with K. pneumoniae amounted to 2 µM; in the data set with E. coli, 4 µM; with S. aureus, 4 µM. Moreover, the hemolysis result with human red blood cells was “no detectable hemolysis”. Also, the “effect on cell viability” value in data set [2] is given as “no detectable effect”. In [2] (100 μM, 1 hour), the cytotoxicity entry is given as “only a low level of cytotoxicity”. For the same compound, the “effect on cell proliferation” value with Vero and HEK293 cells is on record as “no significant effect”. Also, the in vivo toxicity result in the data set with ICR mice (20 mg/kg i.p.) is recorded as “no apparent in vivo toxicity”. Besides, the “survival after peptide injection” value in the data set on ICR mice (10 and 20 mg/kg intraperitoneally, 7 days) is “All mice were alive”.

`CC[C@H](C)[C@H](NC(=O)CN)C(=O)NCC(=O)N[C@@H](C)C(=O)N[C@H](C(=O)N[C@@H](CC(C)C)C(=O)N[C@@H](CCCCN)C(=O)N[C@H](C(=O)N[C@@H](CC(C)C)C(=O)N[C@H](C(=O)N[C@H](C(=O)NCC(=O)N[C@@H](CC(C)C)C(=O)N1CCC[C@H]1C(=O)N[C@@H](C)C(=O)N[C@@H](CC(C)C)C(=O)N[C@H](C(=O)N[C@@H](CO)C(=O)N[C@@H](Cc1c[nH]c2ccccc12)C(=O)N[C@H](C(=O)N[C@@H](CCCCN)C(=O)N[C@@H](CCCNC(=N)N)C(=O)N[C@@H](CCCCN)C(=O)N[C@@H](CCCNC(=N)N)C(=O)N[C@@H](CCC(N)=O)C(=O)N[C@@H](CCC(N)=O)C(N)=O)[C@@H](C)CC)[C@@H](C)CC)[C@@H](C)O)[C@@H](C)O)C(C)C)C(C)C` [melittin, reference compound]: the “effect on cell viability” value in data set [2] is “strong toxicity”. Also, in [2] (low dose (3.125 μM), 1 hour), the viability of cells entry is listed as “significantly decreased”.
